# From patent US5221625A, “Cyclcic FR-900520 microbial biotransformation agent” (Merck & Co., Inc., priority 1992, dated 1993)
# Columns and labels:
# [1] = reputed; vs cyclosporin; cited from earlier work
# [2] = system: mouse T lymphocytes (splenic T-cells); test: T-cell proliferation assay (ionomycin plus PMA induced, tritiated thymidine uptake); type: cell-based, mouse (C57Bl/6)
# Protocol: The principle of this assay is to measure the proliferation of mouse T lumphocytes stimulated with the combination of ionomycin plus PMA.
# Cells were pelleted by centrifugation at 1500 rpm for 8 minutes. Contaminating red cells were removed by treating the pellet with ammonium chloride lysing buffer (GIBCO) for 2 minutes at 4° C. Cold medium was added and cells were again centrifuged at 1500 rpm for 8 minutes. T lumphocytes were then isolated by separation of the cell suspension on nylon wool columns as follows: Nylon wool columns were prepared by packing approximately 4 grams of washed and dried nylon wool into 20 ml plastic syringes. The columns were sterilized by autoclaving at 250° F. for 30 minutes. Nylon wool columns were wetted with warm (37° C.) culture medium and rinsed with the same medium. Washed spleen cells resuspended in warm medium were slowly applied to the nylon wool. The columns were then incubated in an upright position at 37° C. for 1 hours. […]
# The cell suspension was immediately distributed into 96 well flat-bottom microculture plates (Costar) at 200 μl/well. […] Radioactivity of filter discs corresponding to individual wells was measured by standard liquid scintillation counting method (Betacounter). Mean counts per minute of replicate wells were calculated and the results expressed as percent inhibition of tritiated thymidine uptake (proliferation) as follows: [formula]
# [3] = system: FK-506 immunosuppressive activity; test: antagonist activity versus the FK-506 immunosuppressive activity by the T-cell proliferation assay; type: cell-based; details: qualitative
Structure (SMILES),effectiveness relative to cyclosporin [1] [times],reversal of inhibition of T-cell proliferation by IL2 ([2]; 50 units/ml recombinant IL2 added at initiation of culture),"inhibition of T-cell activation ([2]; ionomycin + PMA, qualitative)",antagonist activity versus FK-506 immunosuppressive activity [3]
C=CC[C@@H]1/C=C(\C)C[C@H](C)C[C@H](OC)[C@H]2O[C@@](O)(C(=O)C(=O)N3CCCC[C@H]3C(=O)O[C@H](/C(C)=C/[C@@H]3CC[C@@H](O)[C@H](OC)C3)[C@H](C)[C@@H](O)CC1=O)[C@H](C)C[C@@H]2OC [FR900506],100,,,
CC[C@@H]1C=C2COC1(O)C[C@H](O)[C@@H](C)[C@@H](/C(C)=C/[C@@H]1CC[C@@H](O)[C@H](OC)C1)OC(=O)[C@@H]1CCCCN1C(=O)C(=O)[C@]1(O)O[C@H]([C@@H](OC)C[C@@H](C)C2)[C@@H](OC)C[C@H]1C [Compound I],,reversed,positive inhibition of T-cell activation,antagonist pharmacological activity
